Assay results: patent US8338401B2, “Coumarin-amide derivatives and its preparation, said drug composition and its use” (Institute of Materia Medica Chinese Academy of Medical …, priority 2002, dated 2012)
Values after ≈ are worked out from the molar mass of the structure shown. Like-named read-outs stand apart in the source and are kept apart here.

How the values were obtained:
[1] = tested on: TGF-β receptor; test: TGF-β receptor binding antagonism assay ([125I]TGF-β1) in Balb/c 3T3 cells; conditions: for Inhibition Rate (%): 10 μg/ml, 50 pmol/L [125I]TGF-β1
Experimental: Balb/c 3T3 cells were seeded in 24 well-plate and cultured in Dulbecco's modified Eagle's medium (DMEM) supplemented with 10% fetal bovine serum, in 37° C. and 5% CO2, for 2-4 days. When cells were at a near-confluent, medium was changed to the binding buffer (50 mmol/L HEPES containing NaCl, KCl, MgSO4 and CaCl2). The assay was initiated by addition of 50 pmol/L [^125I]TGF-β1 and test compounds. After incubation for 210-240 minutes, the medium was removed, and cells were washed with ice-cold binding buffer. Non-specific bindings in the presence of 10 nmol/L TGF-β1 were determined. The cells were then solubilized using buffer containing Triton X-100 and the radioactivity was measured (see Table 4).

[2] = tested on: chronic renal failure induced by 5/6 nephrectomy in rats; type: in vivo, Male Wistar rats
Experimental: The model on chronic renal failure induced by partial renal ablation in rats was set up according to the Guidelines of Pre-clinic Research for New Drugs. Male Wistar rats with initial body weights of 200 g, anesthetized with 35 mg/kg of pentobarbital i.p., the right kidney was removed, and the upper and lower pole […] of the left kidney were resected, stop bleeding, closed the abdominal and sutured. Four weeks following surgery, the BUN, creatinine and urinary protein in rats were determined. […] Rats were randomly divided into seven groups, 30/group, with sham, model, Benazepril (4 mg/kg/day) and Losartan (10 mg/kg/day) as positive control, and compound 149 groups (7.5 mg/kg/day, 15 mg/kg/day and 30 mg/kg/day, respectively). All the groups were administered intragastrically, once per day and 6 (six) times per week, till 16 weeks post surgery. Body weights were weighed to observe the growth of the rats. The above indexes were determined every 4 weeks up to the 16th week following the initiation of drug administration, and at each time, a number of animals were sacrificed and the kidneys were harvested for pathological analysis. Pathological lesions in chronic renal failure models are mainly glomerulosclerosis and interstitial fibrosis. According to the damage extents, glomerulosclerosis is divided into five grades (0 IV). 0 grade means no glomerulus pathological changes at all, and IV grade means ultimately glomerular sclerosis and glassy pathological changes.

[3] = tested on: kidney tubulointerstitial fibrosis caused by unilateral ureteral obstruction (UUO) in rats; test: Inhibition of kidney tubulointerstitial fibrosis caused by unilateral ureteral obstruction (UUO) in rats; type: in vivo, Male Wistar rats; conditions: UUO rats; for BUN: oral for 16 days
Experimental: Male Wistar rats with initial body weights of 180˜230 g were used. Unilateral ureteral obstruction was performed under pentobarbital anesthesia (35 mg/kg) and sterile conditions. Via a midline incision, the left ureteral was ligated. Sham surgery was performed by making a midline incision but leaving ureteral intact. Following surgery, rats were randomly divided into sham, model, Benazepril (4 mg/kg/day) and Losartan (10 mg/kg/day) as positive control, and compound 149 (5 mg/kg/day, 10 mg/kg/day and 20 mg/kg/day). Starting 2 day before surgery, Benazepril, Losartan and compound 149 were administered for 16 days orally. BUN and creatinine in serum were determined in the 11th and 16th day (Table 6) following initiation of Benazepril, Losartan and compound 149 treatment, at which time animals were killed and the kidneys were harvested. Tissues were dissected, weighed, fixed in 10% formaldehyde and embedded in paraffin wax for pathological analysis.

[4] = 8th week after administration (12 weeks after nephrectomy), 10 mg/kg
[5] = 8th week after administration (12 wk after nephrectomy), 10 mg/kg
[6] = 12th week after administration (16 weeks after nephrectomy), 10 mg/kg
[7] = 12th week after administration (16 wk after nephrectomy), 10 mg/kg
[8] = 8th week after administration (12 weeks after nephrectomy), 4 mg/kg
[9] = 8th week after administration (12 wk after nephrectomy), 4 mg/kg
[10] = 12th week after administration (16 weeks after nephrectomy), 4 mg/kg
[11] = 12th week after administration (16 wk after nephrectomy), 4 mg/kg
[12] = 16 weeks after nephrectomy (12 weeks since administration), 4 mg/kg/day

CCc1cc2cc(C(=O)Nc3ccc(C(=O)O)c(O)c3)c(=O)oc2cc1OC [Compound 26, 3-(3′-hydroxy-4′-carboxy-phenylamidocarbonyl)-6-ethyl-7-methoxy-coumarin]
IC50 [1]: 8.5 µg/mL (≈ 22.2 µM)
Inhibition Rate (%) [1]: 95.4%
melting point: 266 °C

CCc1cc2cc(C(=O)Nc3ccc(O)c(C(=O)O)c3)c(=O)oc2cc1OC [Compound 27, 3-(3′-carboxy-4′-hydroxy-phenylamidocarbonyl)-6-ethyl-7-methoxy-coumarin]
Inhibition Rate (%) [1]: 77.2%

CCOC(=O)c1cc2cc([N+](=O)[O-])c(O)c([N+](=O)[O-])c2oc1=O
melting point: 176 °C

CCOC(=O)c1cc2cc([N+](=O)[O-])c(OC)c([N+](=O)[O-])c2oc1=O
melting point: 152 °C

COc1cc2oc(=O)c(C(=O)Nc3ccc(C(=O)O)c(O)c3)cc2cc1Br [Compound 96, 3-(3′-hydroxy-4′-carboxy-phenylamidocarbonyl)-6-bromo-7-methoxy-coumarin]
Inhibition Rate (%) [1]: 82.3%

COc1ccc2cc(-c3nnc(-c4ccccc4)o3)c(=O)oc2c1 [Compound 206, 3-(2′-phenyl-1′,3′,4′-oxadiazol-5′yl)-7-methoxycoumarin]
Inhibition Rate (%) [1]: −0.7%

COc1cc2oc(=O)c(C(=O)Nc3ccc(C(=O)O)c(O)c3)cc2cc1Cl [Compound 87, 3-(3′-hydroxy-4′-carboxy-phenylamidocarbonyl)-6-chloro-7-methoxy-coumarin]
Inhibition Rate (%) [1]: 91.1%

CCCCc1nc(Cl)c(CO)n1Cc1ccc(-c2ccccc2-c2nn[nH]n2)cc1 [Losartan, reference compound]
BUN [2, 4]: 25.64 ± 5.116 mg/dL
serum creatinine (Scr.) [2, 4]: 2.34 ± 0.268 mg/dL
AII (Angiotensin II) [2, 5]: 96.7 ± 32.1 pg/mL
UP (urinary protein) [2, 5]: 32.7 ± 10.3 mg/day
serum TGF-β1 [2, 5]: 18.7 ± 9.2 ng/mL
Glomerulosclerosis Grade (%): 0 ([2]; 8 wk after ad., 10 mg/kg/day): 54.4 ± 29.2 %
Glomerulosclerosis Grade (%): I ([2]; 8 wk after ad., 10 mg/kg/day): 31.9 ± 20.0%
Glomerulosclerosis Grade (%): II ([2]; 8 wk after ad., 10 mg/kg/day): 13.7 ± 14.0%
Glomerulosclerosis Grade (%): III ([2]; 8 wk after ad., 10 mg/kg/day): 1.1 ± 3.3 %
Glomerulosclerosis Grade (%): IV ([2]; 8 wk after ad., 10 mg/kg/day): 0%
Glomerulosclerosis Total Grade ([2]; 8 wk after ad., 10 mg/kg/day): 2.8 ± 1.0
BUN [2, 6]: 37.84 ± 5.672 mg/dL
serum creatinine (Scr.) [2, 6]: 2.21 ± 0.48 mg/dL
AII (Angiotensin II) [2, 7]: 38.9 ± 17.4 pg/mL
UP (urinary protein) [2, 7]: 39.3 ± 14.2 mg/day
serum TGF-β1 [2, 7]: 11.8 ± 12.6 ng/mL
Glomerulus pathological scores, compared with the model group ([2]; 12 weeks after nephrectomy (8 weeks since administration), compound 149 30 mg/kg, Losartan 10 mg/kg/day): less than that of the model group significantly
rates of 0 grade glomerylus in residual kidney, compared with the model group ([2]; 12 weeks after nephrectomy (8 weeks since administration), compound 149 30 mg/kg, Losartan 10 mg/kg/day, P<0.05): higher than that of the model group with significant difference
Glomerulosclerosis Grade (%): 0 ([2]; 12 wk after ad., 10 mg/kg/day): 0%
Glomerulosclerosis Grade (%): I ([2]; 12 wk after ad., 10 mg/kg/day): 10.0 ± 2.9%
Glomerulosclerosis Grade (%): II ([2]; 12 wk after ad., 10 mg/kg/day): 45.7 ± 17.7%
Glomerulosclerosis Grade (%): III ([2]; 12 wk after ad., 10 mg/kg/day): 41.9 ± 25.6%
Glomerulosclerosis Grade (%): IV ([2]; 12 wk after ad., 10 mg/kg/day): 2.8 ± 4.8%
Glomerulosclerosis Total Grade ([2]; 12 wk after ad., 10 mg/kg/day): 7.2 ± 1.3
number of grade III glomerulus, compared with the model group ([2]; 16 weeks after nephrectomy (12 weeks since administration), compound 149 30 mg/kg (P<0.01), Losartan 10 mg/kg/day (P<0.05)): less than that of the model group significantly
inflammatory cell infiltration and tubulointerstitial fibrosis (pathological changes) [3]: significantly attenuated
BUN ([3]; 10.0 mg/kg): 23.88 ± 2.94 mg/dL

COc1cc2oc(=O)c(C(=O)Nc3ccc(S(=O)(=O)NC(=N)N)cc3)cc2cc1Cl [Compound 92, 3-(4′-guanidinosulfonylphenylamidocarbonyl)-6-chloro-7-methoxy-coumarin]
Inhibition Rate (%) [1]: 106.4%

CCOC(=O)c1cc2cc(CC)c(O)c([N+](=O)[O-])c2oc1=O [Compound 233, 3-ethoxycarbonyl-6-ethyl-7-hydroxy-8-nitro-coumarin]
melting point: 143 °C

COc1ccc2cc(C(=O)Nc3cccc(C(=O)O)c3)c(=O)oc2c1 [Compound 2, 3-(m-carboxyphenylamidocarbonyl)-7-methoxycoumarin]
IC50 [1]: 13.8 µg/mL (≈ 40.7 µM)
Inhibition Rate (%) [1]: 74.1%
melting point: > 300 °C

CCOC(=O)[C@H](CCc1ccccc1)N[C@H]1CCc2ccccc2N(CC(=O)O)C1=O [Benazepril, reference compound]
BUN [2, 8]: 37.66 ± 8.895 mg/dL
serum creatinine (Scr.) [2, 8]: 3.54 ± 1.140 mg/dL
AII (Angiotensin II) [2, 9]: 74.3 ± 13.2 pg/mL
UP (urinary protein) [2, 9]: 51.1 ± 23.6 mg/day
serum TGF-β1 [2, 9]: 40.9 ± 26.6 ng/mL
Glomerulosclerosis Grade (%): 0 ([2]; 8 wk after ad., 4 mg/kg/day): 12.2 ± 19.0%
Glomerulosclerosis Grade (%): I ([2]; 8 wk after ad., 4 mg/kg/day): 29.6 ± 23.9%
Glomerulosclerosis Grade (%): II ([2]; 8 wk after ad., 4 mg/kg/day): 28.1 ± 18.1%
Glomerulosclerosis Grade (%): III ([2]; 8 wk after ad., 4 mg/kg/day): 19.6 ± 24.2%
Glomerulosclerosis Grade (%): IV ([2]; 8 wk after ad., 4 mg/kg/day): 5.9 ± 11.2%
Glomerulosclerosis Total Grade ([2]; 8 wk after ad., 4 mg/kg/day): 5.5 ± 2.6
BUN [2, 10]: 39.48 ± 7.109 mg/dL
serum creatinine (Scr.) [2, 10]: 2.28 ± 0.70 mg/dL
AII (Angiotensin II) [2, 11]: 47.8 ± 12.0 pg/mL
UP (urinary protein) [2, 11]: 66.3 ± 31.9 mg/day
serum TGF-β1 [2, 11]: 12.8 ± 14.8 ng/mL
inflammatory cell infiltration in kidney tissues ([2]; 12 weeks after nephrectomy (8 weeks since administration), 4 mg/kg/day, some animals): severe
Glomerulosclerosis Grade (%): 0 ([2]; 12 wk after ad., 4 mg/kg/day): 0%
Glomerulosclerosis Grade (%): I ([2]; 12 wk after ad., 4 mg/kg/day): 0%
Glomerulosclerosis Grade (%): II ([2]; 12 wk after ad., 4 mg/kg/day): 19.1 ± 27.1%
Glomerulosclerosis Grade (%): III ([2]; 12 wk after ad., 4 mg/kg/day): 46.2 ± 15.6%
Glomerulosclerosis Grade (%): IV ([2]; 12 wk after ad., 4 mg/kg/day): 34.8 ± 29.9%
Glomerulosclerosis Total Grade ([2]; 12 wk after ad., 4 mg/kg/day): 9.8 ± 1.4
glomerulus pathological score, rank among groups [2, 12]: the highest
inflammatory cell infiltration in kidney matrix [2, 12]: medium-severe
inflammatory cell infiltration and tubulointerstitial fibrosis (pathological changes) [3]: more significant
animals with focal abscess formations in the medulla of kidney ([3]; 4 mg/kg/day): 4/7
BUN ([3]; 4.0 mg/kg): 20.99 ± 1.58 mg/dL

CCOC(=O)c1cc2cc(Cl)c(O)c([N+](=O)[O-])c2oc1=O [Compound 241, 3-ethoxycarbonyl-6-chloro-7-hydroxy-8-nitro-coumarin]
melting point: 195 °C

COc1ccc2cc(C(=O)Nc3ccc(S(=O)(=O)Nc4cc(C)on4)cc3)c(=O)oc2c1C [Compound 55]
Inhibition Rate (%) [1]: 52.3%

COc1ccc2cc(C(=O)Nc3ccc(S(=O)(=O)NC(=N)N)cc3)c(=O)oc2c1OC [Compound 66, 3-(4′-guanidinosulfonylphenylamidocarbonyl)-7,8-dimethoxy-coumarin]
Inhibition Rate (%) [1]: 52.3%

CCOC(=O)c1cc2cc([N+](=O)[O-])c(OC)c(OC)c2oc1=O [Compound 227, 3-ethoxycarbonyl-6-nitro-7,8-dimethoxy-coumarin]
melting point: 191 °C
